Values after ≈ are worked out from the molar mass of the structure shown. Read-outs that look alike come from different tables or passages of the source.
Columns and labels:
[1] = system: Staphylococcus aureus ATCC 29213; experiment: Antibacterial susceptibility testing: IC90 determination (STA); format: cell-based; conditions: ATCC29213, S. aureus ATCC 29213, 90% inhibitory concentration for bacterial growth, read-out: STA (361.159) IC90
Procedure: The following bacteria were used: Staphylococcus aureus ATCC 29213, methicillin-resistant Staphylococcus aureus (MRSA) ATCC 700788 and Escherichia coli ATCC 35218. The bacteria used in this study were grown overnight in flasks containing 100 ml Mueller-Hinton broth (Difco cat. nr. 0757-17) in sterile de-ionized water, with shaking, at 37° C. Stocks were store at −70° C. until use.
Bacteria were incubated on a tryptic soy agar plate containing 5% sheep blood (Becton Dickinson cat. nr. 254053) for 18-24 hours at 35° C. in aerobic conditions (first passage). For the second passage, fresh Mueller-Hinton broth is inoculated with 5-10 colonies and grown overnight at 35° C. until turbidity (reaching log-phase) in aerobic conditions is reached. The bacterial suspension is then adjusted to 0.5 McFarland density and further diluted 1:100 in Mueller Hinton broth medium. This is used as inoculum.
MIC assays were performed by the broth microdilution method in a 96-well format (flat-bottom microtitre plates) with a final volume of 0.1 ml Mueller Hinton broth containing two-fold serial dilutions of compounds and inoculated with 5×10^5 CFU/ml of bacteria (standard inoculum size according to CLSI guidelines). Inhibitors are typically varied over the range of 63 to 0.49 μM. The final DMSO concentration in the assay was 1.25% (maximum tolerable DMSO concentration=6%). In the assays where the effect of human serum on the activity of the compounds against S. aureus was tested, human serum was added at a final concentration of 10%. The plates were incubated at 35° C. for 16-20 hours. At the end of incubation the bacterial growth was quantified fluorometrically. For this, resazurin was added to all wells and the plates were re-incubated. The incubation time is dependent on the type of bacteria. A change in color from blue to pink indicated the growth of bacteria. The fluorescence was read in computer-controlled fluorometer (Fluoroskan Ascent FL, Labsystems) at an excitation wavelength 540 nm and an emission wavelength of 590 nm. The % growth inhibition achieved by the compounds was calculated according to standard methods. The IC90 (expressed in μg/ml) was defined as the 90% inhibitory concentration for bacterial growth. A panel of reference compounds were simultaneously tested for QC approval.

[2] = system: S. aureus NRS119; experiment: MIC broth microdilution (CLSI), S. aureus NRS119; format: cell-based; conditions: Staphylococcus aureus, LZD-R
Procedure: (§1) Minimum Inhibitory Concentrations (MICs) were determined in accordance with the Clinical and Laboratory Standards Institute (CLSI) methodology against aerobic bacteria (CLSI M07-A8) (see Clinical and Laboratory Standards Institute. 2009. Methods for dilution antimicrobial susceptibility tests for bacteria that grow aerobically. CLSI document M07-A8, Vol. 29, No. 2.) by the broth microdilution method with cation-adjusted Mueller-Hinton broth (CA-MHB) medium for the majority of organisms, except for Haemophilus influenza, where Haemophilis test medium (HTM) broth was used. Descriptions of the individual organisms can be found in the table. Where possible, ATCC standard strains were tested.
(§2) The inoculum density for the susceptibility testing was standardized to give a final inoculum of approximately 5×10^5 CFU/mL.
(§3) Stock solutions of the compounds were prepared in DMSO at concentrations of 1 mg/mL. Linezolid was prepared in DMSO at a concentration of 2 mg/mL. Stock solutions of all compounds were diluted into CA-MHB to give a range of two-fold dilutions, depending upon the sensitivity of the organism being tested.

[3] = Thermodynamic solubility / solubility in aqueous solution; format: physicochemical; conditions: thermodynamic from solid, 4 days at ambient temperature
Procedure: The pH solubility profiling was carried out at ambient temperature for a period of 4 days. A saturation solubility study was carried out in order to determine maximum solubility in a particular buffer solution. The compound was added to respective buffer solution until saturation point is reached. This was followed by shaking the flask for 4 days at ambient temperature. After 4 days, the solutions were filtered and injected on UPLC and the concentration was determined using a generic HPLC method.

[4] = system: S. aureus NRS121; experiment: MIC broth microdilution (CLSI), S. aureus NRS121; format: cell-based; conditions: Staphylococcus aureus, LZD-R
Procedure: as §1, §2, §3

[5] = target: T1, S. aureus ATCC 29213 FabI (Staphylococcus aureus, UniProt Q6GI75); experiment: Staphylococcus aureus FabI enzyme inhibition assay; format: biochemical; conditions: 30 minutes at room temperature, NADH consumption
T1 sequence (Q6GI75 1-256): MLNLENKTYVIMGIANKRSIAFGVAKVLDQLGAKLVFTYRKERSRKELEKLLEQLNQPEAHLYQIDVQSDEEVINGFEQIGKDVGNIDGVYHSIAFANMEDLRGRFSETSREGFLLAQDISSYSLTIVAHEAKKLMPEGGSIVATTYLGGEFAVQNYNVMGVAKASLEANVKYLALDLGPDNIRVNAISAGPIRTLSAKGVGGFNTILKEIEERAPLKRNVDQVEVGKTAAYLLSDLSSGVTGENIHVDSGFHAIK
Procedure: FabI enzyme inhibition assays were carried out in half-area, 384-well microtitre plates. Compounds were evaluated in 40-μl assay mixtures containing 100 mM NaADA, pH 6.5 (ADA=N-[2-acetamido]-2iminodiacetic acid), 250 μM crotonoyl-CoA, 625 μM NADH and 50 μg/ml S. aureus ATCC 29213 FabI Inhibitors were typically varied over the range of 50 to 0.39 μM. The reaction mixtures were incubated for 30 minutes at room temperature and the reaction was stopped by adding 200 mM Tris buffer (pH 9.0) to create a pH-shift. The consumption of NADH was monitored by measuring the change in absorbance at […]. By comparing sample readings to those of negative (absence of compound) and positive (absence of enzyme) controls, the percent inhibition of enzymatic activity of the compounds was determined. A best-fit curve is fitted by a minimum of squares method. From this an IC50-value (expressed in μg/ml), resulting in 50% inhibition of enzymatic activity, was obtained.

[6] = system: S. aureus ATCC 29213; experiment: MIC broth microdilution (CLSI), S. aureus ATCC 29213; format: cell-based; conditions: Staphylococcus aureus, ATCC 29213 / MSSA, reference strain MSSA
Procedure: as §1, §2, §3

[7] = system: E. coli tolC mutant; experiment: MIC broth microdilution (CLSI), E. coli tolC mutant; format: cell-based; conditions: Escherichia coli
Procedure: as §1, §2, §3

[8] = system: E. coli ATCC 25922; experiment: MIC broth microdilution (CLSI), E. coli ATCC 25922; format: cell-based; conditions: Escherichia coli, ATCC25922
Procedure: as §1, §2, §3

[9] = aqueous buffer, Buffer pH 2, read-out: Solubility, Buffer pH 2
[10] = aqueous buffer, Buffer pH 4, read-out: Solubility, Buffer pH 4
[11] = aqueous buffer, Buffer pH 7.4, read-out: Solubility, Buffer pH 7.4
[12] = aqueous with cosolvent or surfactant or cyclodextrin, 10% HP-β-CD buffer pH 4, read-out: Solubility, 10% HP-β-CD buffer pH 4
[13] = aqueous with cosolvent or surfactant or cyclodextrin, 10% HP-β-CD buffer pH 7.4, read-out: Solubility, 10% HP-β-CD buffer pH 7.4
[14] = aqueous with cosolvent or surfactant or cyclodextrin, 20% HP-β-CD buffer pH 4, read-out: Solubility, 20% HP-β-CD buffer pH 4
[15] = aqueous with cosolvent or surfactant or cyclodextrin, 20% HP-β-CD buffer pH 7.4, read-out: Solubility, 20% HP-β-CD buffer pH 7.4

**Q.** What does the source list for `O=C1CCc2cc(/C=C/C(=O)N3CCC=C(c4ccccc4)CC3)cnc2N1` [Co. No. 2]?
**A.** IC90 [1]: 0.14 µg/mL (≈ 0.375 µM); MIC90 [2]: 0.125 µg/mL (≈ 0.335 µM); solubility at 4 days [3, 9]: 2 µg/mL (≈ 5.36 µM); solubility at 4 days [3, 10]: < 2 µg/mL; solubility at 4 days [3, 11]: 3 µg/mL (≈ 8.03 µM); solubility at 4 days [3, 12]: 1150 µg/mL (≈ 3080 µM); solubility at 4 days [3, 13]: 1080 µg/mL (≈ 2900 µM); solubility at 4 days [3, 14]: 980 µg/mL (≈ 2620 µM); solubility at 4 days [3, 15]: 1050 µg/mL (≈ 2820 µM); MIC90 [4]: 0.125 µg/mL (≈ 0.335 µM); IC50 [5]: 884 nM; MIC90 [6]: 0.06 µg/mL (≈ 0.161 µM); MIC90 [7]: 0.25 µg/mL (≈ 0.669 µM); MIC90 [8]: > 32 µg/mL

**Q.** Which IC90 [1] does the source give for `COc1ccc(F)cc1C1=CCCN(C(=O)/C=C/c2cnc3c(c2)CCC(=O)N3)CC1` [Co. No. 27] here?
**A.** The IC90 was 0.1 µg/mL (≈ 0.237 µM).

**Q.** What about the MIC90 [2] of the same compound?
**A.** Its MIC90 is 0.06 µg/mL (≈ 0.142 µM).

**Q.** And the solubility at 4 days [3, 9]?
**A.** The solubility at 4 days was < 10 µg/mL.

**Q.** And the solubility at 4 days [3, 10]?
**A.** The solubility at 4 days was < 10 µg/mL.

**Q.** And the solubility at 4 days [3, 11]?
**A.** Its solubility at 4 days is < 10 µg/mL.

**Q.** What about the solubility at 4 days [3, 12] of the same compound?
**A.** Its solubility at 4 days is 220 µg/mL (≈ 522 µM).

**Q.** And the solubility at 4 days [3, 13]?
**A.** The solubility at 4 days was 250 µg/mL (≈ 593 µM).

**Q.** And the solubility at 4 days [3, 14]?
**A.** The solubility at 4 days was 440 µg/mL (≈ 1040 µM).

**Q.** And the solubility at 4 days [3, 15]?
**A.** The solubility at 4 days was 590 µg/mL (≈ 1400 µM).

**Q.** And the MIC90 [4]?
**A.** Its MIC90 is 0.06 µg/mL (≈ 0.142 µM).

**Q.** What about the IC50 [5] of the same compound?
**A.** The IC50 was 1070 nM.

**Q.** And the MIC90 [6]?
**A.** The MIC90 was 0.06 µg/mL (≈ 0.142 µM).

**Q.** And the MIC90 [7]?
**A.** The MIC90 was > 8 µg/mL.

**Q.** And the MIC90 [8]?
**A.** The MIC90 was > 8 µg/mL.
